Format in all cases: cell-based
In one assay the target is T1, GlyR α1^L117A (Homo sapiens, UniProt P23415, L145A).
T1 sequence (P23415 29-457 L145A): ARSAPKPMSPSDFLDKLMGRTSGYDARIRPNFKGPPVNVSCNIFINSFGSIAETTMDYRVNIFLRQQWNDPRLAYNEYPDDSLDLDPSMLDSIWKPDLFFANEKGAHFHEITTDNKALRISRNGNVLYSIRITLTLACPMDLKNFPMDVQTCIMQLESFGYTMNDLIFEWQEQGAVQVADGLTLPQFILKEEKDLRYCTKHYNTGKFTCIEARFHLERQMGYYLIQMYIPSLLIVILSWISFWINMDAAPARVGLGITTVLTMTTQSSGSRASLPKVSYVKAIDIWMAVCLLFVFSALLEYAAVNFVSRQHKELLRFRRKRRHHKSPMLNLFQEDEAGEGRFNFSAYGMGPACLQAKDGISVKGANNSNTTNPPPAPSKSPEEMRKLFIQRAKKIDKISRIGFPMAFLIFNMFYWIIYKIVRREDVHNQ
The experiment in a line: Whole-cell recording of substituted GlyR in HEK cells.

The target in another assay is T2, GlyR α1^L98A (Homo sapiens, UniProt P23415, L126A).
T2 sequence (P23415 29-457 L126A): T1 sequence (P23415 29-457 L145A) with L98A, A117L
The description is as above. The conditions noted are these: α1^L98A.

The next assay has as its target T3, GlyR α1^L134A, E157A (Homo sapiens, UniProt P23415, E185A/L162A).
T3 sequence (P23415 29-457 L162A/E185A): T1 sequence (P23415 29-457 L145A) with A117L, L134A, E157A
The description is as above.

The next assay deals with T4, GlyR α1 WT (Homo sapiens, UniProt P23415).
T4 sequence (P23415 29-457): T1 sequence (P23415 29-457 L145A) with A117L
The experiment in a line: Whole-cell recording of wild-type GlyR α1 expressed in HEK cells.

For another assay, the target named is T5, GlyR α1^L64A (Homo sapiens, UniProt P23415, L92A).
T5 sequence (P23415 29-457 L92A): T1 sequence (P23415 29-457 L145A) with L64A, A117L
The experiment in a line: Whole-cell recording of substituted GlyR in HEK cells.

The next assay deals with T6, GlyR α1^I132A (Homo sapiens, UniProt P23415, I160A).
T6 sequence (P23415 29-457 I160A): T1 sequence (P23415 29-457 L145A) with A117L, I132A
The assay is described as above.

Where [1] appears, read: direct activation without glycine.
Setting [2] is: read-out: Zn^2+ Inhibition IC50, modulation of EC50 glycine currents.
Where [3] appears, read: read-out: Zn^2+ Activation EC50, direct activation without glycine.
Setting [4] is: maximal Zn^2+ response as percentage of maximal glycine response in same cell.

Substitutions are numbered along the chain they refer to.

On to `NCC(=O)O` [Glycine, glycine], for which the “Glycine Imax” value on GlyR α1^L117A came to 4.4 ± 0.7 nA; at GlyR α1^L98A, 6.4 ± 0.5 nA; on GlyR α1 WT, 6.8 ± 0.5 nA; on GlyR α1^L64A, 5.6 ± 0.8 nA; on GlyR α1^I132A, 6.1 ± 0.7 nA. In addition, the “Glycine nH” value on GlyR α1^L117A (Hill slope) turned out to be 1.67 ± 0.1; at GlyR α1^L98A (Hill slope), 1.9 ± 0.3; on GlyR α1 WT (Hill slope), 2.7 ± 0.2; on GlyR α1^L64A (Hill slope), 2 ± 0.6; on GlyR α1^I132A (Hill slope), 2.7 ± 0.4. Besides, on GlyR α1^L134A, E157A (α1^L134A with extra mutation E157A vs α1^L134A), the “Reduction in sensitivity to glycine” value is 50 fold. Further, on GlyR α1^L134A, E157A (α1^L134A, E157A), the “Threshold concentration for glycine” value is above 100 µM.
Usually IC50 stands for the concentration that inhibits the measured activity by half. In general, EC50 refers to the concentration giving half of the maximal effect. Take `[Zn+2]` [Zn^2+]: the “Zn^2+ Activation EC50” value at GlyR α1^L117A (setting [1]) and on GlyR α1 WT (setting [1]) was “None” each time. In addition, the IC50 at GlyR α1^L117A (setting [2]) was 13.3 ± 3.3 µM; at GlyR α1^L98A (setting [2]), above 1000 µM; on GlyR α1 WT (setting [2]), 15 ± 2 µM; on GlyR α1^L64A (setting [2]), 70 ± 9 µM; at GlyR α1^I132A (setting [2]) it was above 1000 µM. Further, the figures for the EC50 at GlyR α1^L98A (setting [3]), on GlyR α1^L64A (setting [3]) and at GlyR α1^I132A (setting [3]) were 0.26 ± 0.08 µM, 1.5 ± 1.3 µM and 140 ± 30 µM, respectively. Moreover, the entries for the “Zn^2+ Activation nH” value on GlyR α1^L98A (Hill slope), on GlyR α1^L64A (Hill slope) and at GlyR α1^I132A (Hill slope) were 1.1 ± 0.2, 1.1 ± 0.4 and 1.2 ± 0.1, respectively. The “Zn^2+ Activation Relative efficacy (% Gly Imax)” value was 49 ± 5 % Gly Imax on GlyR α1^L98A (setting [4]), 10 ± 3 % Gly Imax at GlyR α1^L64A (setting [4]) and 72 ± 5 % Gly Imax at GlyR α1^I132A (setting [4]). Further, the “Reduction in sensitivity to Zn^2+ activation” value on GlyR α1^L134A, E157A (α1^L134A, E157A vs α1^L134A) was found to be 3 fold.

The record behind these values is PMC6685790 (Nature structural & molecular biology, 2008).
